Results from the NIST ThermoML archive (doi:10.1016/j.jct.2018.02.018).
± gives the expanded uncertainty stated by the source.

What was measured:
[1] = xn = mol fraction of the nth substance listed; conditions: 100 kPa, Liquid; for speed of sound: Frequency=3 MHz, Single path-length method; for mass density: Vibrating tube method
[2] = refractive index (Na D-line) (dimensionless); xn = mol fraction of the nth substance listed; conditions: 100 kPa, Liquid, Standard Abbe refractometry

NCc1ccccc1 [benzylamine] + C[S+](C)[O-]
Conditions | mass density, [1] [kg/m3] | refractive index, [2] | speed of sound, [1] [m/s]
293.15 K, x2 = 0 | 983 ± 4 | 1.544 ± 0.006 | 1579.7 ± 1.7
293.15 K, x2 = 0.1031 | 992 ± 4 | 1.54 ± 0.006 | 1578.5 ± 1.7
293.15 K, x2 = 0.1998 | 1001 ± 4 | 1.536 ± 0.006 | 1575.9 ± 1.6
293.15 K, x2 = 0.2979 | 1011 ± 4 | 1.532 ± 0.006 | 1571.1 ± 1.6
293.15 K, x2 = 0.399 | 1021 ± 4 | 1.526 ± 0.006 | 1565.5 ± 1.6
293.15 K, x2 = 0.4991 | 1032 ± 4 | 1.52 ± 0.006 | 1558.8 ± 1.6
293.15 K, x2 = 0.5886 | 1043 ± 4 | 1.515 ± 0.006 | 1551.6 ± 1.5
293.15 K, x2 = 0.6999 | 1056 ± 4 | 1.507 ± 0.006 | 1540.9 ± 1.5
293.15 K, x2 = 0.8029 | 1070 ± 4 | 1.498 ± 0.006 | 1530 ± 1.5
293.15 K, x2 = 0.8991 | 1084 ± 4 | 1.49 ± 0.006 | 1517.7 ± 1.5
293.15 K, x2 = 0.9493 | 1092 ± 4 | 1.485 ± 0.006 | 1510.6 ± 1.5
303.15 K, x2 = 0 | 974 ± 4 | 1.539 ± 0.006 | 1540.2 ± 1.7
303.15 K, x2 = 0.1031 | 983 ± 4 | 1.535 ± 0.006 | 1539.3 ± 1.7
303.15 K, x2 = 0.1998 | 992 ± 4 | 1.531 ± 0.006 | 1536.1 ± 1.6
303.15 K, x2 = 0.2979 | 1002 ± 4 | 1.527 ± 0.006 | 1533.5 ± 1.6
303.15 K, x2 = 0.399 | 1012 ± 4 | 1.522 ± 0.006 | 1527.6 ± 1.6
303.15 K, x2 = 0.4991 | 1023 ± 4 | 1.516 ± 0.006 | 1521.6 ± 1.6
303.15 K, x2 = 0.5886 | 1033 ± 4 | 1.51 ± 0.006 | 1514.9 ± 1.5
303.15 K, x2 = 0.6999 | 1047 ± 4 | 1.502 ± 0.006 | 1504.8 ± 1.5
303.15 K, x2 = 0.8029 | 1061 ± 4 | 1.494 ± 0.006 | 1494.9 ± 1.5
303.15 K, x2 = 0.8991 | 1075 ± 4 | 1.485 ± 0.006 | 1483.3 ± 1.5
303.15 K, x2 = 0.9493 | 1082 ± 4 | 1.48 ± 0.006 | 1476.2 ± 1.5
313.15 K, x2 = 0 | 965 ± 4 | 1.534 ± 0.006 | 1500 ± 1.7
313.15 K, x2 = 0.1031 | 974 ± 4 | 1.53 ± 0.006 | 1500.2 ± 1.7
313.15 K, x2 = 0.1998 | 983 ± 4 | 1.527 ± 0.006 | 1497.6 ± 1.6
313.15 K, x2 = 0.2979 | 993 ± 4 | 1.522 ± 0.006 | 1494.6 ± 1.6
313.15 K, x2 = 0.399 | 1003 ± 4 | 1.517 ± 0.006 | 1490.3 ± 1.6
313.15 K, x2 = 0.4991 | 1014 ± 4 | 1.511 ± 0.006 | 1484.8 ± 1.6
313.15 K, x2 = 0.5886 | 1024 ± 4 | 1.505 ± 0.006 | 1478.6 ± 1.5
313.15 K, x2 = 0.6999 | 1038 ± 4 | 1.498 ± 0.006 | 1469.2 ± 1.5
313.15 K, x2 = 0.8029 | 1051 ± 4 | 1.489 ± 0.006 | 1460 ± 1.5
313.15 K, x2 = 0.8991 | 1065 ± 4 | 1.481 ± 0.006 | 1448.6 ± 1.5
313.15 K, x2 = 0.9493 | 1072 ± 4 | 1.476 ± 0.006 | 1442.2 ± 1.5
323.15 K, x2 = 0 | 957 ± 4 | 1.529 ± 0.006 | 1461.1 ± 1.7
323.15 K, x2 = 0.1031 | 966 ± 4 | 1.526 ± 0.006 | 1461.4 ± 1.7
323.15 K, x2 = 0.1998 | 974 ± 4 | 1.522 ± 0.006 | 1459.4 ± 1.6
323.15 K, x2 = 0.2979 | 984 ± 4 | 1.517 ± 0.006 | 1457.4 ± 1.6
323.15 K, x2 = 0.399 | 994 ± 4 | 1.512 ± 0.006 | 1453.3 ± 1.6
323.15 K, x2 = 0.4991 | 1005 ± 4 | 1.506 ± 0.006 | 1448.4 ± 1.6
323.15 K, x2 = 0.5886 | 1015 ± 4 | 1.501 ± 0.006 | 1442.7 ± 1.5
323.15 K, x2 = 0.6999 | 1028 ± 4 | 1.493 ± 0.006 | 1434 ± 1.5
323.15 K, x2 = 0.8029 | 1042 ± 4 | 1.485 ± 0.006 | 1425.3 ± 1.5
323.15 K, x2 = 0.8991 | 1055 ± 4 | 1.476 ± 0.006 | 1414.6 ± 1.5
323.15 K, x2 = 0.9493 | 1062 ± 4 | 1.471 ± 0.006 | 1408.5 ± 1.5
